From patent US8361998B2, “Compounds and their use as IKACh blockers” (AstraZeneca AB, priority 2010, dated 2013)
Where a name gives a salt, the structure may show the parent alone. Read-outs that look alike come from different tables or passages of the source.

Target: T1, human cardiac ion channel proteins hKir3.1/Kir3.4 (Homo sapiens, UniProt P48544+P48549)
T1 construct: expressed in transfected cells
T1 sequence (P48549 1-501): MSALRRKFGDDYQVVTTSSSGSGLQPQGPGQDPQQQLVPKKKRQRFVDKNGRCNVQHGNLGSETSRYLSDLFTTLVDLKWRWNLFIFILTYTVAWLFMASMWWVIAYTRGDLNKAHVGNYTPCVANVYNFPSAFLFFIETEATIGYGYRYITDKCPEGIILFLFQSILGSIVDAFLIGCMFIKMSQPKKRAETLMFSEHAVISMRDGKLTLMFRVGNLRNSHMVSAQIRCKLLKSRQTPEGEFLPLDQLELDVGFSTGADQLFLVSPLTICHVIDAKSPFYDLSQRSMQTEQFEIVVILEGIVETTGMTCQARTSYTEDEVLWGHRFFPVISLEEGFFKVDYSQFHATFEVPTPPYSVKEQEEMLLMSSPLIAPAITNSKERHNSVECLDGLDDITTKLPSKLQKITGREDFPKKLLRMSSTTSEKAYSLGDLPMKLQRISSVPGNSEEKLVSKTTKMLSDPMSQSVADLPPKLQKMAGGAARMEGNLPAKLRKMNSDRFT
T1 sequence (P48544 1-419): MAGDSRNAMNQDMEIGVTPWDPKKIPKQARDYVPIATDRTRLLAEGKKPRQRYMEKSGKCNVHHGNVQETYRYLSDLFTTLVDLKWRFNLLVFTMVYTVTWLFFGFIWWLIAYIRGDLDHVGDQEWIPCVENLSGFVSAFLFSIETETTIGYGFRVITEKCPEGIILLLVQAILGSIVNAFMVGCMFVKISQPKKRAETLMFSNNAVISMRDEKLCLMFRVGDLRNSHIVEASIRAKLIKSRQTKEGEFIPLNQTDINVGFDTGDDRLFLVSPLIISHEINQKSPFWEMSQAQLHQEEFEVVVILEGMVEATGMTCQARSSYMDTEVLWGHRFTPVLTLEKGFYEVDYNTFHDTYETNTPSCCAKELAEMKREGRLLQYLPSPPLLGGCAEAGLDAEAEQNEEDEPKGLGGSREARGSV
Assay: Atomic Absorption Screening (AAS) Rb efflux assay of hKir3.1/Kir3.4 block, carbachol/high K+ stimulated, 10-pt or 7-pt CR
Format: cell-based
Conditions: AAS Rb efflux, CHO-K1 cells expressing hKir3.1/Kir3.4
Procedure, shortened: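 CHO-K1 cells stably co-expressing human Kir3.1/Kir3.4 were Rb-loaded for 3 h at 37° C, preincubated with compound 5 min at RT, then stimulated 10 min with 10 μM carbachol plus 20 mM KCl (final). Supernatant Rb was measured by atomic absorption. Compounds ran at 0.003–67 μmol/L (10-pt) or 0.037–27 μmol/L (7-pt), threefold dilutions; IC50s are means of >4 or >3 replicates respectively.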

[1] = 10-pt CR (0.003 to 67 μmol/L), mean of >4 replicates, read-out: IKACh IC50 10-pt CR, AAS
[2] = 7-pt CR (0.037 to 27 μmol/L), mean of >3 replicates, read-out: IKACh IC50 7-pt CR, AAS

SMILES | IC50 [1] [nM] | IC50 [2] [nM]
CC(C)C[C@@H](CN1CC(O)C1)N(C)C(=O)c1ccc(C#N)cc1F [Example 38.6, 4-Cyano-2-fluoro-N-[(2S)-1-(3-hydroxyazetidin-1-yl)-4-methylpentan-2-yl]-N-methylbenzamide] | 3400 | –
CC(C)[C@@H](CN1CC(O)C1)N(C)C(=O)c1ccc(Cl)cc1 [Example 6.2, (S)-4-Chloro-N-(1-(3-hydroxyazetidin-1-yl)-3-methylbutan-2-yl)-N-methylbenzamide] | 2600 | –
CCC[C@@H](CN1CC(O)C1)N(C)C(=O)c1ccc(F)cc1 [Example 8.6, (S)-4-Fluoro-N-(1-(3-hydroxyazetidin-1-yl)pentan-2-yl)-N-methylbenzamide] | 8500 | –
CC(C)[C@@H](CN1CCC1)N(C)C(=O)c1ccc(Cl)cc1 [Example 5.1, (S)-N-(1-(Azetidin-1-yl)-3-methylbutan-2-yl)-4-chloro-N-methylbenzamide] | 6000 | –
Cc1cc(C(=O)N(C)[C@H](CN2CCC2)C2CC2)ccc1F [Example 4.1, (S)—N-(2-(Azetidin-1-yl)-1-cyclopropylethyl)-4-fluoro-N,3-dimethylbenzamide] | 5900 | –
CN(C(=O)c1ccc(C#N)cc1)[C@H](CN1CC(O)C1)C1CCC1 [Example 39.2, (S)-4-Cyano-N-(1-cyclobutyl-2-(3-hydroxyazetidin-1-yl)ethyl)-N-methylbenzamide] | 490 | –
Cc1cc(C(=O)N(C)[C@H](CN2CC(O)C2)C2CCC2)ccc1F [Example 39.16, (S)—N-(1-Cyclobutyl-2-(3-hydroxyazetidin-1-yl)ethyl)-4-fluoro-N,3-dimethylbenzamide] | 78 | –
CN(C(=O)c1ccc(Cl)cc1)[C@H](CN1CC(O)C1)C1CC1 [Example 7.2, (S)-4-Chloro-N-(1-cyclopropyl-2-(3-hydroxyazetidin-1-yl)ethyl)-N-methylbenzamide] | 1800 | –
CCC[C@@H](CN1CC(O)C1)N(C)C(=O)c1ccc(Cl)cc1 [Example 8.2, (S)-4-Chloro-N-(1-(3-hydroxyazetidin-1-yl)pentan-2-yl)-N-methyl-benzamide, hydrochloride] | 880 | –
Cc1cc(C(=O)N(C)[C@H](CN2CC(O)C2)C(C)C)ccc1F [Example 6.1, (S)-4-Fluoro-N-(1-(3-hydroxyazetidin-1-yl)-3-methylbutan-2-yl)-N,3-dimethylbenzamide] | 1500 | –
Cc1cc(C(=O)N(C)[C@H](CN2CC(O)C2)C2CC2)ccc1F [Example 7.1, (S)—N-(1-Cyclopropyl-2-(3-hydroxyazetidin-1-yl)ethyl)-4-fluoro-N,3-dimethylbenzamide] | 1300 | –
CCC[C@@H](CN1CCC1)N(C)C(=O)c1ccc(Cl)cc1 [Example 1.2, (S)-N-(1-(Azetidin-1-yl)pentan-2-yl)-4-chloro-N-methylbenzamide] | 3600 | –
CC[C@@H](CN1CC(O)C1)N(C)C(=O)c1ccc(Cl)cc1 [Example 39.12, (S)-4-Chloro-N-(1-(3-hydroxyazetidin-1-yl)butan-2-yl)-N-methylbenzamide] | 3900 | –
CCC[C@@H](CN1CC(O)C1)N(C)C(=O)c1ccc(F)c(F)c1 [Example 8.1, (S)-3,4-Difluoro-N-(1-(3-hydroxyazetidin-1-yl)pentan-2-yl)-N-methylbenzamide] | 1700 | –
CC[C@H](C)[C@@H](CN1CC(O)C1)N(C)C(=O)c1ccc(C#N)cc1F [Example 29.7, 4-Cyano-2-fluoro-N-((2S,3S)-1-(3-hydroxyazetidin-1-yl)-3-methylpentan-2-yl)-N-methylbenzamide] | 3500 | –
CCCC[C@@H](CN1CC(O)C1)N(C)C(=O)c1ccc(F)cc1 [Example 33.7, 4-Fluoro-N-[(2S)-1-(3-hydroxyazetidin-1-yl)hexan-2-yl]-N-methylbenzamide] | 550 | –

SMILES | IC50 [1] [nM] | IC50 [2] [nM]
CC(C)C[C@@H](CN1CC(O)C1)N(C)C(=O)c1ccc(Cl)cc1 [Example 38.2, 4-Chloro-N-[(2S)-1-(3-hydroxyazetidin-1-yl)-4-methylpentan-2-yl]-N-methylbenzamide] | 110 | –
CN(C(=O)c1ccc(Cl)cc1)[C@H](CN1CC(O)C1)C1CCC1 [Example 39.14, (S)-4-Chloro-N-(1-cyclobutyl-2-(3-hydroxyazetidin-1-yl)ethyl)-N-methylbenzamide] | 72 | –
CN(C(=O)c1ccc(Br)cc1)[C@H](CN1CC(O)C1)C1CC1 [Example 4.4, (S)-4-Bromo-N-(1-cyclopropyl-2-(3-hydroxyazetidin-1-yl)ethyl)-N-methylbenzamide] | 590 | –
CCC[C@@H](CN1CCC1)N(C)C(=O)c1ccc(F)c(C)c1 [Example 1.4, (S)-N-(1-(Azetidin-1-yl)pentan-2-yl)-4-fluoro-N,3-dimethyl-benzamide] | 3700 | –
Cc1cccc(C(=O)N(C)[C@H](CN2CCCC2)C(C)C)c1 [Example 12.2, (S)-1-(2-(N,3-Dimethylbenzamido)-3-methylbutyl)pyrrolidinium 2,3-dihydroxysuccinate] | 16000 | 5800
CC(C)[C@@H](CN1CCCC1)N(C)C(=O)c1ccc(F)c(Cl)c1 [Example 16.55, (S)-3-Chloro-4-fluoro-N-methyl-N-(3-methyl-1-(pyrrolidin-1-yl)butan-2-yl)benzamide] | 1900 | 1400
CC(C)[C@@H](CN1CCCC1)N(C)C(=O)c1ccc(Br)cc1 [Example 19, (S)-1-(2-(4-bromo-N-methylbenzamido)-3-methylbutyl)pyrrolidinium 3-carboxy-2,3-dihydroxypropanoate] | 4600 | 820
CN(C(=O)c1ccc(F)c(Cl)c1)[C@H](CN1CC(O)C1)C1CC1 [Example 7.3, (S)-3-Chloro-N-(1-cyclopropyl-2-(3-hydroxyazetidin-1-yl)ethyl)-4-fluoro-N-methylbenzamide] | 1900 | –
CC(C)[C@@H](CN1CCCC1)N(C)C(=O)c1ccc(F)cc1Cl [Example 1.17, (S)-2-Chloro-4-fluoro-N-methyl-N-(3-methyl-1-(pyrrolidin-1-yl)butan-2-yl)benzamide] | 4200 | 2800
CC(C)[C@@H](CN1CCC1)N(C)C(=O)c1ccc(Br)cc1.O=C(O)CCC(=O)O [Example 5.2] | 1800 | –
CC(C)[C@@H](CN1CC[C@H](O)C1)N(C)C(=O)c1ccc(Cl)cc1 [Example 10.2, 4-Chloro-N-((S)-1-((S)-3-hydroxypyrrolidin-1-yl)-3-methylbutan-2-yl)-N-methylbenzamide hemi tartrate] | 5100 | 2000
Cc1cc(C(=O)N(C)[C@H](CN2CCCC2)C(C)C)ccc1F [Example 12.1, (S)-4-Fluoro-N,3-dimethyl-N-(3-methyl-1-(pyrrolidin-1-yl)butan-2-yl)benzamide-dihydroxysuccinate] | 15000 | 1400
CC(C)[C@@H](CN1CCCC1)N(C)C(=O)c1ccc(Cl)cc1 [Example 18, (S)-1-(2-(4-Chloro-N-methylbenzamido)-3-methylbutyl)pyrrolidinium chloride] | 6800 | 1200
CCCC[C@@H](CN1CC(O)C1)N(C)C(=O)c1ccc(C#N)cc1 [Example 33.4, 4-Cyano-N-[(2S)-1-(3-hydroxyazetidin-1-yl)hexan-2-yl]-N-methylbenzamide] | 1100 | –
CC(C)C[C@@H](CN1CC(O)C1)N(C)C(=O)c1ccc(F)c(F)c1 [Example 38.1, 3,4-Difluoro-N-[(2S)-1-(3-hydroxyazetidin-1-yl)-4-methylpentan-2-yl]-N-methylbenzamide] | 1300 | –
